Patent US7459447B2, “Method for treating hyperlipidemia” (Kowa Co., Ltd., priority 2004, dated 2008)

Tested on: Hartley male guinea pigs
Assay: Blood cholesterol level lowering effect in guinea pigs, oral administration once a day for 14 days
Type: in vivo, guinea pig
Settings: ezetimibe 3 mg/kg, oral once a day for 14 days, blood collected after 18 h fast; for Reduction ratio (%) of blood cholesterol level: vs control group
Experimental: The blood cholesterol level lowering effect when a calcium salt of pitavastatin and ezetimibe were coadministered was measured by the below-described testing method. For comparison, a calcium salt of atorvastatin was used instead of the calcium salt of pitavastatin and the effect brought about by the concomitant use of two medicaments was measured in a similar manner. • 1. Animals Provided for the Test and Their Breeding Environment
Six-week-old Hartley male guinea pigs (purchased from Nippon SLC) were provided for the test. Throughout the test period, they were bred in a breeding room maintained at a light-dark cycle (a light term by a room light: from 7:00 am to 7:00 pm), a temperature of 23 ±3° C. and a humidity of 55 ±15% and fed with a solid feedstuff (“RC-4”, product of Oriental Yeast Industry) and tap water ad libitum. • 2. Preparation of Medicament
Treatment method according to the invention: The calcium salt of pitavastatin and ezetimibe were suspended in a 0.5 wt. % aqueous solution of carboxymethylcellulose sodium (product of Iwai Chemicals Company) and their concentrations were adjusted to 1 mg/mL and 3 mg/mL, respectively. Since the calcium salt of pitavastatin contained 9.43 wt. % of water, 1.1 times the weight of the dosage was weighed for correction. The suspension was refrigerated (4° C.) in a light resistant bottle and adjustment was conducted every 7 days.
Treatment method for comparison: In a similar manner to that described above except the use of the calcium salt of atorvastatin instead of the calcium salt of pitavastatin, a medicament (atorvastatin calcium 5 mg/mL) for comparison test was prepared. • 3. Testing Method
The treatment method according to the present invention: Twenty four guinea pigs were classified into four groups (each consisting of 6 guinea pigs), that is, a control group, a single administration group of pitavastatin calcium salt (1 mg/kg), a single administration group of ezetimibe (3 mg/kg), and a coadministration group of pitavastatin calcium salt (1 mg/kg) and ezetimibe (3 mg/kg) so that they differ little in the total blood cholesterol level and blood triglyceride level. These two medicaments were each administered at a dose of 1 mL/kg once a day and this administration was repeated for 14 days. To the control group, a 0.5 wt. % aqueous solution (1 mL/kg) of carboxymethylcellulose sodium was orally administered. In each group, the guinea pigs were fasted for 18 hours after the final administration and then the blood was collected from them to measure the blood cholesterol level.
Treatment method for comparison: twenty four guinea pigs were tested in a similar manner to the method according to the invention. The dosage of the calcium salt of atorvastatin was 5 mg/kg in each of the group nourished by the single use of atorvastatin calcium salt and the group nourished by the concomitant use of atorvastatin calcium salt and ezetimibe. • 4. Static Analysis and Data Processing Method
Multigroup comparison between the control group and the medicament administered group was performed using Bartlett's variance analysis—Dunnett's multiple comparative assay. A difference with a significance level less than 5% was regarded as significant. • 5. Results
A reduction ratio (%) is a value represented by ((total blood cholesterol level of control group on average−total blood cholesterol level of each group on average)/(total blood cholesterol level of control group on average))×100, while a relative index is a value represented by (total blood cholesterol level of each group on average)/(total blood cholesterol level of control group on average).

[1] = Table 2 comparison test: atorvastatin Ca 5 mg/kg
[2] = Table 1 test: pitavastatin Ca 1 mg/kg

Structure (SMILES)	Relative index (total blood cholesterol level of group / control group) [1]	Reduction ratio (%) of blood cholesterol level [1] [%]	Relative index (total blood cholesterol level of group / control group) [2]	Reduction ratio (%) of blood cholesterol level [2] [%]
CC(C)c1c(C(=O)Nc2ccccc2)c(-c2ccccc2)c(-c2ccc(F)cc2)n1CC[C@@H](O)C[C@@H](O)CC(=O)O [atorvastatin Ca]	0.77	23		
O=C1[C@H](CC[C@H](O)c2ccc(F)cc2)[C@@H](c2ccc(O)cc2)N1c1ccc(F)cc1 [ezetimibe, (3R,4S)-1-(4-fluorophenyl)-3-[(3S)-3-(4-fluorophenyl)-3-hydroxypropyl]-4-(4-hydroxyphenyl)-2-azetidinone]	0.81	19	0.79	21
O=C(O)C[C@H](O)C[C@H](O)/C=C/c1c(C2CC2)nc2ccccc2c1-c1ccc(F)cc1 [pitavastatin Ca, (3R,5S,6E)-7-[2-cyclopropyl-4-(4-fluorophenyl)-3-quinolyl]-3,5-dihydroxy-6-heptenoic acid]			0.71	29
